In experiment [1] the test system is white outbred male rats. Description: Porsolt method of behavioral despair (helplessness). It is filed as in vivo. The source says:
The Porsolt method of behavioral despair (helplessness) (Porsolt R. D., Anton G., Blavet N. et al. Behavioral despair in rats: a new model sensitive to antidepressant treatment//Europ. J. Pharmacol. 1978—v. 47.—p. 379-391) is the basic model for assessing antidepressants (Andreeva N. I., ? H. ? . the Methodical Guidelines for Studying Antidepressant Activity of Pharmaceuticals,//Guidebook for Experimental (Preclinical) Studies of New Pharmaceuticals of the RF Ministry of Public Health.—ZAO IIA “Remedium”.—2000.—p. 121-125). The studies have been conducted on white outbred male rats having the weight of 230-250 grams. The animals have been put into a water reservoir having 40 cm in diameter and the depth of 60 cm, for the rats cannot either run out of the reservoir or find a support in it. The water temperature has been maintained at the level of 25° C., the experiments have been conducted within the period from 12 A.M. to 4 P.M. After coming into water the animals begin displaying energetic motion activity aimed at finding a way out of the aversive (troublesome) situation, but then they stop their attempts and take a typical position in the water, while being fully immovable or making insignificant motions necessary for keeping their heads over the water surface. The depressive condition intensity rate in this test is the duration of immobility. The immobility condition has been assessed visually, determining its duration within 10 minutes of the observations. Substances having antidepressant activity alleviate this condition by reducing the immobility time.
The studies have been conducted using animals divided into groups. The animals from the experimental groups have received single doses of phenotropyl in the amounts of 25, 50 and 100 mg/kg or the standard amitriptyline medication in the amount of 10 mg/kg (ampoule solution made by Spofa, the Czech Republic) in the volume corresponding to the dose. The animals from the control group have received distilled water in the same dosage. All the substances have been given intragastrically 40 minutes before the an experiment.

Experiment [2] has as its system white outbred male rats. Description: involuntary swimming in a reservoir with freely moving wheels according to Nomura. The class given is in vivo. As to the method: The method of involuntary swimming in a reservoir with freely moving wheels (Nomura S., Shimizu J., Kinjo M. et al. A new behavioral test for antidepressant drugs//Eur. J. Pharmacol.—1982.—v. 83.—N 34.—p. 171-175) is widely used for assessing the action of antidepressant agents. The installation is a reservoir having dimensions of 64×30×42 cm and divided into four equal sections where wheels are located. The reservoir is filled with water at the temperature of 25° C., coming to the medium line of the wheels. The studies have been conducted with white outbred male rats having the weight from 230 to 250 grams. The rats have been put into each section in the position where their heads are opposite to the wheels, and then the wheel speed has been recorded for 10 minutes with the use of electromechanical counters. The number of wheel revolutions made by the rat for 10 minutes is recorded.
This study has been conducted with animals from different groups. The rats from the experimental groups have received single doses of phenotropyl in the amounts of 25, 50 and 100 mg/kg or the standard amitriptyline medication in the amount of 10 mg/kg (ampoule solution made by Spofa, the Czech Republic) in the volume corresponding to the dosage. The animals from the control group have received distilled water in the same dosage. All the substances have been given intragastrically 40 minutes before the an experiment.

Experiment [3] relates to patients having depressive illnesses. As to the kind of experiment: clinical study, Hamilton rating scale for depressive illness. The class given is in vivo, human. The conditions noted are these: 75 mg daily. As to the method: The Hamilton rating scale for primary depressive illness (Hamilton M. Development of a rating scale for primary depressive illness//Br J Soc Clin Psychol. 1967 December;6(4):278-96) is one of the most widely used scales for assessing depression in the clinical practice.
The material for clinical studies has comprised two homogenous groups of patients having depressive illnesses (40 persons) aged 20-42, out of which 20 patients have taken amitriptyline in the daily dose of 75 mg (25 mg three times a day), and 20 patients have taken phenotropyl in the daily dose of 100 mg as a single dose in the morning time. For a comparative study of the medications antidepressant activity the patients have been enlisted for the study according to the following criteria: the informed consent is available, a light or moderate depressive episode (F32.0 ? F32.1 according to MCB-10) is present, the total score under the Hamilton rating scale is not lower than 18, no contraindications to taking amitriptyline and phenotropyl. The patients have been relatively uniformly assigned to the said groups according to meaningful factors, such as sex and age, time for which the condition exists and syndrome characteristics. The condition existence time varied from 1 to 2 years. The therapy efficiency has been assessed on the basis of a degree of reduction of the total score under the Hamilton scale, namely: full effect—reduction by more than 50%; partial reduction—from 25 to 50%; no effect—reduction by less than 25%. The condition of the patients has been assessed during the background studies and at each 7th day of the therapy for the whole 6 weeks of the therapy. In total, seven examinations have been carried out. The comparative data on the general efficiency pf the medications, as given in Table 5, evidence a rather quick reduction of the depressive illness psychopathological symptoms in the process of administering phenotropyl and amitriptyline. However, the antidepressant effect of phenotropyl has been more pronounced on the 7th and 14th days of the therapy. The full reduction has been attained in 25% and 40% of the patients, respectively. […] From the 28th day of the therapy the number of the patients experiencing the maximum effect has not been changed either on the 35th or the 42nd days of the therapy. Out of 20% of the patients experiencing a partial reduction of the depressive symptoms, 15% have been patients with the reduction from 25% to 50%, and 5%—patients with the reduction by less than 25%.

In a further experiment the test system is white outbred male mice. Description: haloperidol catalepsy method. Conditions: haloperidol 0.5 mg/kg intraperitoneally alone. It is filed as in vivo. As to the method: As one of the indicators for antidepressant antagonism in relation to depriming effects of neuroleptics, neuroleptic-induced catalepsy is used. The maintenance of catalepsy in animals is assessed by their ability to maintain set or unusual poses for a definite time (Morpurgo C. Effects of antiparkinson drugs on phenothiazine induced catatonia reaction//Arch. Int Pharmacodyn., 1962, vol. 137 No 1-2, p. 84-94). Reduction or prevention of catalepsy is one of the factors showing antidepressant activity in studied substances.
The studies have been conducted with white outbred male mice having the weight from 18 to 24 grams. Haloperidol is introduced intraperitoneally in a single dose of 0.5 mg/kg. Phenotropyl has been introduced intraperitoneally in doses of 50, 100 and 200 mg/kg in 15 minutes after the introduction of haloperidol. The catalepsy intensity has been assessed by time (in seconds) of keeping the animals in an uncomfortable pose where their front legs have been put onto a bar having the height of 4 cm, in 60, 120 and 180 minutes after introducing the said medications. It is shown in Table 4 that phenotropyl clearly antagonizes haloperidol-induced catalepsy.

Experiment [4] has as its system white outbred male rats. Description: reserpine depression method according to Bernardi. The class given is in vivo. Conditions: reserpine 2.5 mg/kg intraperitoneally alone. The text has this: The method of reserpine depression according to Bernardi (Bernardi D., Paglialunga S., Jori A. Peripheral and central components in the hyperthermic effect of desipramine in rezerpinized rats//J. Pharm. Pharmacol., 1968, vol. 20, p. 204-209) is one of the basic models for assessing antidepressants in studies of new pharmaceuticals. The studies have been conducted with white outbred male rats having the weight from 200 to 240 grams. Reserpine has been introduced intraperitoneally, as a single dose of 2.5 mg/kg 2 hours before the introduction of phenotropyl (intraperitoneally, single doses of 25, 50, 100 and 200 mg/kg) and 3 hours before starting the study. The animals from the control group have received intraperitoneally distilled water only in the same volumes as the animals from the experimental groups. The antidepressant activity of phenotropyl has been assessed by its effect on sedation (suppression of the orientation and motion activity), intensity of ptosis and diarrhea, which have been caused by reserpine in the rats.
The orientation and motion activity of the animals has been studied for three minutes in a special activity meter (Varimex). The intensity of ptosis and diarrhea has been assessed on the standard 4-point scale (Mashkovsky M. D., Andreeva N. I., Polezhaeva A. I. Pharmacology of Antidepressants. Moscow, Medicine Publishers, 1983, p. 194-199).

Molecules are shown by their SMILES. Counter-ions that a name gives are not always drawn.

For the compound `CN(C)CCC=C1c2ccccc2CCc2ccccc21` [Amitriptyline, 5-(3-dimethylaminopropylidene)-10,11-dihydrodibenzocycloheptine hydrochloride, reference compound], in the experiment on white outbred male rats [1] (10 mg/kg intragastrically), the “effect on immobility time” value is “reliably reduced the immobility time”. For the same compound, in the experiment on white outbred male rats [1] (single dose 10 mg/kg intragastrically 40 minutes before, 10 minutes observation), the Time of immobility was determined as 166.1 ± 46.5 s. Further, the “effect on number of wheel revolutions” value in the experiment on white outbred male rats [2] (10 mg/kg intragastrically) is “reliably increasing the number of wheel revolutions”. Also, the “Number of wheel revolutions for 10 minutes” value in the experiment with white outbred male rats [2] (single dose 10 mg/kg intragastrically 40 minutes before) turned out to be 115.1 ± 24.6. For the same compound, the “patients (%) with reduction of total Hamilton score 25-49” value in experiment [3] (7th therapy day) amounted to 20%; in experiment [3] (14th therapy day), 30%; in experiment [3] (21st therapy day) it was 30%; in experiment [3] (28th therapy day), 10%; in experiment [3] (35th therapy day), 5%; in experiment [3] (42nd therapy day), 5%. In addition, the “patients (%) with reduction of total Hamilton score <25” value is given as 80% in experiment [3] (7th therapy day); 50% in experiment [3] (14th therapy day); 30% in experiment [3] (21st therapy day); 20% in experiment [3] (28th therapy day); 10% in experiment [3] (35th therapy day); 10% in experiment [3] (42nd therapy day). Further, the “patients (%) with reduction of total Hamilton score ≧50” value in experiment [3] (7th therapy day) stood at 0%; in experiment [3] (14th therapy day) it was 20%; in experiment [3] (21st therapy day), 40%; in experiment [3] (28th therapy day), 70%; in experiment [3] (35th therapy day), 85%; in experiment [3] (42nd therapy day), 85%. In addition, the “patients (n) with reduction of total Hamilton score 25-49” value is on record as 4 in experiment [3] (7th therapy day); 6 in experiment [3] (14th therapy day); 6 in experiment [3] (21st therapy day); 2 in experiment [3] (28th therapy day); 1 in experiment [3] (35th therapy day); 1 in experiment [3] (42nd therapy day). For the same compound, the “patients (n) with reduction of total Hamilton score <25” value came to 16 in experiment [3] (7th therapy day); 10 in experiment [3] (14th therapy day); 6 in experiment [3] (21st therapy day); 4 in experiment [3] (28th therapy day); 2 in experiment [3] (35th therapy day); 2 in experiment [3] (42nd therapy day). Moreover, the “patients (n) with reduction of total Hamilton score ≧50” value in experiment [3] (7th therapy day) is reported as 0; in experiment [3] (14th therapy day), 4; in experiment [3] (21st therapy day) it was 8; in experiment [3] (28th therapy day) it was 14; in experiment [3] (35th therapy day) it was 17; in experiment [3] (42nd therapy day), 17.
With `O=C(CCCN1CCC(O)(c2ccc(Cl)cc2)CC1)c1ccc(F)cc1` [Haloperidol, reference compound], the “Catalepsy” value was determined as 1.3 ± 0.8 s in the experiment on white outbred male mice (60 minutes), 27.5 ± 8.5 s with white outbred male mice (120 minutes) and 63.4 ± 2.8 s in the experiment on white outbred male mice (180 minutes).
As to `COC(=O)[C@H]1[C@H]2C[C@@H]3c4[nH]c5cc(OC)ccc5c4CCN3C[C@H]2C[C@@H](OC(=O)c2cc(OC)c(OC)c(OC)c2)[C@@H]1OC` [Reserpine, reference compound], in the experiment on white outbred male rats [4] (4-point scale), the Diarrhea worked out at 2.4 ± 0.1 points. In the experiment on white outbred male rats [4] (3 hours before study, 4-point scale), the Ptosis is listed as 3.6 ± 0.2 points. Moreover, the “Number of pulses in activity meter” value in the experiment on white outbred male rats [4] (three minutes, Varimex) was 11.8 ± 2.2.

These data come from US20060287383A1, “Substance exhibiting antidepressant property” (priority 2003, published 2006).
